Test results taken from patent US8410020B2, “Fungicidal composition comprising a pyridylethylbenzamide derivative and a compound capable of inhibiting the methionine biosynthesis” (Bayer Cropscience AG, priority 2004, dated 2013).

What was measured:
Type in all cases: in vivo
[1] = test system: Erysiphe graminis f. sp. hordei; test: Efficacy against Erysiphe graminis f. sp. hordei on barley plants (preventive spray, 24 h before contamination); conditions: dose 500 g/ha, grading 7 to 14 days after contamination
Method: (§1) The active ingredients tested are prepared by potter homogenisation in a mixture of acetone/tween/water. This suspension is then diluted with water to obtain the desired active material concentration.
Barley plants (Express variety) in starter cups, sown on 50/50 peat soil-pozzolana substrate and grown at 12° C., are treated at the 1-leaf stage (10 cm tall) by spraying with the aqueous suspension described above.
(§2) Plants, used as controls, are treated with an aqueous solution not containing the active material.
After 24 hours, the plants are contaminated by dusting them with Erysiphe graminis f. sp. hordei spores, the dusting being carried out using diseased plants.
(§3) Grading is carried out 7 to 14 days after the contamination, in comparison with the control plants.

Botrytis cinerea = test: Efficacy against Botrytis cinerea on gherkin plants (preventive spray, 24 h before contamination); conditions: grading 5 to 7 days after contamination
Method: The formulated (concentrated suspension) compounds are diluted with water to obtain the desired active material concentration Gherkin plants (Petit vert de Paris variety) in starter cups, sown on a 50/50 peat soil-pozzolana substrate and grown at 18-20° C., are treated at the cotyledon Z11 stage by spraying with the aqueous suspension described above. Plants, used as controls, are treated with an aqueous solution not containing the active material.
After 24 hours, the plants are contaminated by depositing drops of an aqueous suspension of Botrytis cinerea spores (150,000 spores per ml) on upper surface of the leaves. The spores are collected from a 15-day-old culture and are suspended in a nutrient solution composed of: • 20 g/L of gelatine • 50 g/L of cane sugar • 2 g/L of NH4NO3 • 1 g/L of KH2PO4
The contaminated gherkin plants are settled for 5/7 days in a climatic room at 15-11° C. (day/night) and at 80% relative humidity. Grading (% of efficacy) is carried out 5 to 7 days after the contamination, in comparison with the control plants.

[2] = test system: Erysiphe graminis f. sp. tritici; test: Efficacy against Erysiphe graminis on wheat plants (preventive spray, 24 h before contamination); conditions: grading 7 to 14 days after contamination
Method: as §1
Wheat plants (Audace variety) in starter cups, sown on 50/50 peat soil-pozzolana substrate and grown at 12° C., are treated at the 1-leaf stage (10 cm tall) by spraying with the aqueous suspension described above.
as §2
After 24 hours, the plants are contaminated by dusting them with Erysiphe graminis f. sp. tritici spores, the dusting being carried out using diseased plants.
as §3

With CC#Cc1cc(C)nc(Nc2ccccc2)n1 [Mepanipyrim, mepanipyrim] as the compound, how does the “% Efficacy” value [1] read?
Its value is 0%.

Cc1cc(C)nc(Nc2ccccc2)n1 [Pyrimethanil, pyrimethanil] was tested. Which “% Efficacy” value (Botrytis cinerea; dose 12.3 ppm) did it give?
The value was 90%.

For O=C(NCCc1ncc(C(F)(F)F)cc1Cl)c1ccccc1C(F)(F)F [Compound 1, N-{2-[3-chloro-5-(trifluoromethyl)-2-pyridinyl]ethyl}-2-trifluoromethylbenzamide], which “% Efficacy” value ([2]; dose 500 g/ha) is on record?
The value was 35%.

And the “% Efficacy” value [1]?
The value was 40%.

What about the “% Efficacy” value (Botrytis cinerea; dose 37 ppm) of the same compound?
The value was 45%.

Which “% Efficacy” value ([2]; dose 31.2 g/ha) does the source give for Cc1cc(C2CC2)nc(Nc2ccccc2)n1 [Cyprodinil, cyprodinil] here?
Its value is 0%.
